Data reported in patent US20240033233A1, “COMPOSITIONS AND METHODS FOR DELIVERING PHARMACEUTICAL AGENTS” (Arizona Board of Regents on Behalf of the University of …, priority 2020, published 2024).
Where two headings read alike, the source gives them in different places.

Columns and labels:
[1] = Solubility of resatorvid in solvents (sonication, visual observation); assay type: physicochemical
Method: To determine solubility of resatorvid in a liquid formulation, a variety of solvents were tested: phosphate buffered saline, NS, ethanol, and PEG400, all with resatorvid at a concentration of 0.1% w/v and the solutions were sonicated for 1 hour at room temperature.
In addition, a solution of 5% w/v resatorvid in EtOH 140 proof was prepared (1 mL of ETOH and 50 mg of resatorvid). The solution was not translucent and became opaque/cloudy and there was still drug undissolved floating around.
Solutions were made with w/v TAK242+PEG600 and 5% w/v TAK242+100% Acetone. All three solutions were sonicated at room temperature for 1 hour. […] As the solution began to adjust to ambient temperature it started to solidify into a white thick substance almost like lard.
Further experiments were conducted using glycerol as the solvent. 0.0504 g of TAK-242 was weighed out to make a 5.04% w/v solution in 1 mL of glycerol, USP grade. […]. The solution was then sonicated for 60 minutes at 37° C. […] Images were taken at each to document the outcome.
A 5% w/v solution of resatorvid (50mg) and PEG 400 USP (1 mL) was prepared.
(§1) Seven platforms were analyzed for compatibility with TAK-242. The platforms were DermaBASE cream (cream and lotion), PENcream (cream), PEG-400 solution, PG solution, 1% w/v Carbomer 934P resin gel at pH˜7, 2% w/v Sodium hyaluronate gel/serum and 20% w/v Pluronic F127 gel. Solubility of TAK-242 was determined at concentrations ranging from 0.1-5% w/v using PBS (pH=7.41), 0.9% normal saline (NS), HPLC grade ethanol, PEG-400 and PG as solvents. The following step was to test if TAK-242 could be directly incorporated into the platforms mentioned above via non-sterile compounding to determine if the drug would need to be pre-dissolved before incorporation. Determination of how much volume of PEG-400 or PG could be incorporated into the creams and gels without losing consistency while maintaining homogeneity was examined; 1 g of base (cream or gel) was weighed out and was compounded with PEG-400 or PG (500 μL-1000 μL). Drug was then dissolved in appropriate determined volume of compatible solvent and sonicated for 60 minutes, then it was prepared via non-sterile compounding technique and formulations were examined for physical appearance (consistency, homogeneity, visible precipitation, phase separation, compatibility). The only formulation that was different was the Pluronic F127 as everything was mixed in as a liquid at 4° C. and the solution would then solidify at room temperature […] to create the gel which was then mixed thoroughly until homogenous.

[2] = In vitro oil-water partitioning coefficient (Log-P), 1-octanol/PBS; assay type: physicochemical; conditions: for logP: 1-octanol/PBS; for partition coefficient (Log-P): range over pH 6.5, 7.1, 8.8
Method: TAK242 raw powder was weighed out (0.003 g) and placed in 2 dram ambered colored glass vials containing equal volumes (1.5 mL) of 1-octanol and PBS (1×, pH=7.4). Various solutions were made, and pH was adjusted and maintained at 6.5, 7.1, 8.8, adjustments were made using 0.1 M HCl solution and 0.1 M NaOH solution. […] The vials were rotated using a Barnstead/Thermolyne Labquake shaker (Dubuque, IA, USA) for 24 hours and then left undisturbed in a vertical position for an additional 24 hours for phase separation between the aqueous and non-aqueous layers. A sample of each layer was carefully withdrawn and then analyzed by a validated HPLC method as describe in the HPLC analysis section under methods.

[3] = test system: UV-induced AP-1 activation; conditions: acetone solution of resatorvid, mouse epidermis; cited from earlier work
[4] = test system: human transformed keratinocytes (HaCaT); assay: In vitro cell dose-response (resazurin viability) in 2-D culture, HaCaT; assay type: cell-based; conditions: 72 h exposure
Method: (§2) The effects of raw TAK-242 powder on the viability of human representative human keratinocyte cell lines exposed to different concentrations were tested. HaCaT (a human transformed keratinocyte from histologically normal skin cell line) and NHEK (a primary normal epidermal keratinocyte cell line) were used as models of the human epidermis, which express keratinocytes in the stratum basale and then move up the final barrier layer of the skin, which is the stratum corneum. The HaCaT cells were grown in Dulbecco's modified Eagle's medium (DMEM), Optimized 1×, 10% (v/v) fetal bovine serum (FBS), and Pen-Strep (100 units/mL penicillin, 100 μg/mL) in a humidified incubator at 37° C. and 5% CO2. NHEK cells were grown NHEK- growth medium provided by MatTek (Ashland, MA, USA) in a humidified incubator at 37° C. and 5% CO2.
After confluence, HaCaT and NHEK cells were seeded in 96-black well plate at a concentration of 5,000 cells in 100 μL of media per well. After 48 hours, cells were then incubated for 48 h to allow attachment to the surface of the plates. Cells were then exposed to different concentrations of TAK-242. The drug solutions were prepared by dissolving raw TAK-242 powder in 5% v/v DMSO and DMEM media to make a solution at 1×. A volume of 100 μL of drug solution was added to each well. After 72 h of exposure and incubation at 37° C. and 5% CO2, 20 μL of 20 μM resazurin sodium salt were added to each well and incubated for 4 h. Fluorescence intensity of resofurin was detected at 544 nm (excitation) and 590 nm (emission) using the Molecular Devices® SpectraMax® M3 Multi-Mode Microplate Reader (Sunnyvale, CA, USA). The relative viability of the cells was calculated as followed by equation 1: […]

[5] = cited from earlier work
p-p38 signal in EpiDerms = assay: p-p38 signal after topical resatorvid with or without solar simulated light; assay type: cell-based, human; conditions: constitutive or UV-induced
[6] = Direct incorporation of resatorvid powder into cream bases (solubility/compatibility); assay type: physicochemical; conditions: room temperature 30 minutes to 1 hour
Method: The solubility of the drug as powder was tested on both Dermabase cream as well as PENcream. […] It was a clear indication that the drug would have to be pre-dissolved in a solution before incorporating into the creams.
A variety of cream/lotion formulations were prepared. One gram of Dermabase cream and 0.1 gram of resatorvid were compounded together. […] One gram of PENcream was compounded with 0.1 grams of resatorvid. After compounding the mixture sat for 1 hour at room temp. […] PEG 400 USP and PEG 600 USP at volumes of 0.5 mL, 1 mL and 2 mL were used with 1 gram of cream base. […] PEG 600 USP changed the cream consistency to a lotion for each cream at added volumes 0.5 mL, 1 mL and 2 mL.
as §1

[7] = test system: primary normal epidermal keratinocytes (NHEK); assay: In vitro cell dose-response (resazurin viability) in 2-D culture, NHEK; assay type: cell-based, human; conditions: 72 h exposure
Method: as §2
After confluence, HaCaT and NHEK cells were seeded in 96-black well plate at a concentration of 5,000 cells in 100 μL of media per well. After 48 hours, cells were then incubated for 48 h to allow attachment to the surface of the plates. Cells were then exposed to different concentrations of TAK-242. […] Fluorescence intensity of resofurin was detected at 544 nm (excitation) and 590 nm (emission) using the Molecular Devices® SpectraMax® M3 Multi-Mode Microplate Reader (Sunnyvale, CA, USA). The relative viability of the cells was calculated as followed by equation 1: […]

[8] = cited from earlier work; remark: listed apart in the source
[9] = UV-Vis spectra of resatorvid solution in PEG400 on storage; assay type: physicochemical; conditions: 0.1% w/v in PEG400, 4 days at 25° C.
Description: The solvents that were used were PEG400, EtOH 140 proof, PBS pH 7.4, Acetonitrile, NS, and MeOH. PEG600 was not used as it was too thick. At a concentration of 0.1% w/v it was observed that resatorvid was soluble in PEG400, acetonitrile and EtOH 140 proof and HPLC grade MeOH. 0.01% w/v solutions were also made for some samples to show an acceptable UV-Vis spectra. Resatorvid was not soluble in NS or PBS pH 7.4.
A Molecular Devices® SpectraMax® M3 Multi-Mode Microplate Reader (Sunnyvale, CA, USA) was used to perform UV/Vis spectroscopy. The wavelength range was 190 through 290 nm. A 0.1% w/v solution of TAK-242 in HPLC grade methanol, PEG-400, HPLC grade ethanol, HPLC grade acetonitrile, PBS (pH=7.4) and 0.85% w/v normal saline were made and analyzed under UV visible spectroscopy on a 96-wellplate black clear bottom.

[10] = cited from earlier work; remark: listed apart in the source
[11] = series of increasing concentrations

CCOC(=O)C1=CCCC[C@H]1S(=O)(=O)Nc1ccc(F)cc1Cl [Resatorvid]
solubility ([1]; 0.1% w/v in EtOH 140 proof): soluble
solubility ([1]; 0.1% w/v in EtOH 140 proof, listed as TAK-242): completely dissolved
solubility ([1]; 0.1% w/v in HPLC grade MeOH): soluble
solubility ([1]; 0.1% w/v in NS (normal saline)): not soluble
solubility ([1]; 0.1% w/v in NS (normal saline), listed as TAK-242): failed to dissolve
solubility ([1]; 0.1% w/v in PBS pH 7.4): not soluble
solubility ([1]; 0.1% w/v in PBS pH 7.4, listed as TAK-242): failed to dissolve
solubility ([1]; 0.1% w/v in PEG400): soluble
solubility ([1]; 0.1% w/v in acetonitrile): soluble
solubility ([1]; 5% w/v in 100% acetone, sonicated at room temperature 1 hour): dissolved the drug completely
solubility ([1]; 5% w/v in EtOH 140 proof): only partially dissolved
solubility ([1]; 5% w/v in PEG 400 USP): no signs of undissolved drug
solubility ([1]; glycerol USP, 5.04%, 2.5%, 1.25% and 0.625% w/v, sonicated 60 minutes at 37° C.): did not dissolve
solubility ([1]; w/v in PEG600 (concentration not given), sonicated at room temperature 1 hour): dissolved the drug completely
logP ([2]; as quoted, conditions not stated, read-out: log P): 1.54
logP ([2]; pH 6.5, At 35° C., pH = 6.5, read-out: Experimental (Log P) Average ± SD): 1.65 ± 0.029
logP ([2]; pH 6.5, At Room temperature/ambient temperature, pH = 6.5, read-out: Experimental (Log P) Average ± SD): 1.58 ± 0.019
logP ([2]; pH 7.1, At 35° C., pH = 7.1, read-out: Experimental (Log P) Avg. Log-P ± SD): 1.68 ± 0.013
logP ([2]; pH 7.1, At Room temperature/ambient temperature, pH = 7.1, read-out: Experimental (Log P) Avg. Log-P ± SD): 1.54 ± 0.149
logP ([2]; pH 8.8, At 35° C., pH = 8.8, read-out: Experimental (Log P) Avg. Log-P ± SD): 0.94 ± 0.023
logP ([2]; pH 8.8, At Room temperature/ambient temperature, pH = 8.8, read-out: Experimental (Log P) Avg. Log-P ± SD): 0.88 ± 0.06
partition coefficient (Log-P) ([2]; at 35° C.): 0.94-1.68
partition coefficient (Log-P) ([2]; at 37° C.): 0.88-1.58
UV-induced AP-1 activation [3]: blocked
% cell viability ([4]; 1000 μM): ~70%
% cell viability ([4]; all concentrations except 1000 μM): ~100%
toxicity [4, 11]: did not show any significant toxicity
experimentally determined pKa reported [5]: 8.0-8.1
p-p38 signal (p-p38 signal in EpiDerms): potently blocked
solubility of drug powder in cream ([6]; Dermabase cream): unable to dissolve in the cream
solubility of drug powder in cream ([6]; Dermabase cream, listed as Resatorvid (TAK-242)): undissolved and incompatible with creams
solubility of drug powder in cream ([6]; PENcream): undissolved drug
solubility of drug powder in cream ([6]; PENcream, listed as Resatorvid (TAK-242)): undissolved and incompatible with creams
% cell viability ([7]; all concentrations): ~100%
toxicity [7, 11]: did not show any significant toxicity
reported solubility ([8]; in DMSO): 10 mg/mL
reported solubility ([8]; in EtOH): 20 mg/mL
reported solubility ([8]; in H2O): sparingly soluble
stability of drug in solution (UV-VIS spectra) [9]: no changes in the drug
reported Log P [10]: 2.53
